Reference: PMC5725665, “Discovery of a Highly Selective Cell‐Active Inhibitor of the Histone Lysine Demethylases KDM2/7” (Angewandte Chemie (International Ed. in English), 2017)

What was measured:
Assay in all cases: biochemical
Design in all cases: AlphaScreen histone demethylase activity assay
JARID1C (KDM5C) = JARID1C (KDM5C) (Homo sapiens, UniProt P41229)
Description: (§1) A base‐mediated 5‐endo‐trig cyclization of a C‐2‐substituted aromatic imine afforded the racemic indoline core with two adjacent stereocenters. Subsequent acylation of the indoline ring system conferred stability towards oxidation and provided a handle for modulating polarity. Finally, metal‐catalysed cross‐coupling of the aryl bromide provided access to a variety of linkers between the indoline core and pyrrolidine capping group. In total, 45 racemic compounds were synthesized, and IC50 values for inhibition of KDM2A were determined using two orthogonal enzyme activity assays: AlphaScreen25 and RapidFire MS26 (see Section S3.1 in the Supporting Information for complete inhibition data). Key structure–activity relationships are summarized below (Scheme 1 B, compounds 2–12). […] In immunofluorescence assays using HeLa cells ectopically expressing catalytically active KDM2A, a dose‐dependent increase in H3K36me2 staining was observed upon incubation with (S,S)‐6, reflecting augmented cellular H3K36me2 levels (Figure 2 A and Section S3.3). […] To profile its selectivity, (S,S)‐6 was tested for inhibitory activity against a panel of KDMs, methyllysine binding motifs, and epigenetic enzymes.

JMJD1A (KDM3A) = molecular target: T1, JMJD1A (KDM3A) (Homo sapiens, UniProt Q9Y4C1)
T1 sequence (Q9Y4C1 1-1321): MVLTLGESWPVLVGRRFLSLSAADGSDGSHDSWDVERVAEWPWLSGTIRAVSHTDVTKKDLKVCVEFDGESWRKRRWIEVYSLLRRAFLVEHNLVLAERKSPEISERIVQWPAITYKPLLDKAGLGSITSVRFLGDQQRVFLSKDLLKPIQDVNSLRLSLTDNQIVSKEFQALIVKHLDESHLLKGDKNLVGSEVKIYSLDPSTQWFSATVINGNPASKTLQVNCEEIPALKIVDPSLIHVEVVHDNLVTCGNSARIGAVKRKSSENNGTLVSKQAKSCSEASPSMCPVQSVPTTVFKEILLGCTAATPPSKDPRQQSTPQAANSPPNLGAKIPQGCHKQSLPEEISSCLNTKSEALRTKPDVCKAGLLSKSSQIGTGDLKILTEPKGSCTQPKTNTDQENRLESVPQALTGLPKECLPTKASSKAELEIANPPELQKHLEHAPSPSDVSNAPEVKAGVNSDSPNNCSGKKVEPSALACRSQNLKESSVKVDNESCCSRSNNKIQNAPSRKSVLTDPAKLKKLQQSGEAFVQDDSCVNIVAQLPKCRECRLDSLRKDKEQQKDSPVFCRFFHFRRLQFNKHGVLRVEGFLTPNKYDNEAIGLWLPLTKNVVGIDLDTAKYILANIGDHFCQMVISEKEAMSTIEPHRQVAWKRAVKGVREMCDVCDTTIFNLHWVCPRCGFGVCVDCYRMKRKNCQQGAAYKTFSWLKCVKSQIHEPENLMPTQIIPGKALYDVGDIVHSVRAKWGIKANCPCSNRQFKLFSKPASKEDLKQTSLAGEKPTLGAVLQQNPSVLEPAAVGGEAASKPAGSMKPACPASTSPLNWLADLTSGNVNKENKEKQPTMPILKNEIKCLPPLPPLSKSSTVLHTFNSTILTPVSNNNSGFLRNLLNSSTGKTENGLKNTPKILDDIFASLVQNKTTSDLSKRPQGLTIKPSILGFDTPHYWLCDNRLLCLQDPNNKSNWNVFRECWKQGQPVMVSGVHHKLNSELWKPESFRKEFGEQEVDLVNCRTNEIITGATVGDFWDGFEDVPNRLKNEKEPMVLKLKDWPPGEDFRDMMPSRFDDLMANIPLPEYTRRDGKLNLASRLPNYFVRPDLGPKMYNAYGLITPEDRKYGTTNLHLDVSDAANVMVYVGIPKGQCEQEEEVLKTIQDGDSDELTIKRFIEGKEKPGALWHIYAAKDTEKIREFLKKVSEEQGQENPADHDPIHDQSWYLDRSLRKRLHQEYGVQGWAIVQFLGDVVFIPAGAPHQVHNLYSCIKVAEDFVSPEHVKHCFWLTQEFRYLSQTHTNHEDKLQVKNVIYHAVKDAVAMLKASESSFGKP
Description: as §1

JARID1A (KDM5A) = JARID1A (KDM5A) (Homo sapiens, UniProt P29375)
Chain of JARID1A (KDM5A) (P29375 whole entry): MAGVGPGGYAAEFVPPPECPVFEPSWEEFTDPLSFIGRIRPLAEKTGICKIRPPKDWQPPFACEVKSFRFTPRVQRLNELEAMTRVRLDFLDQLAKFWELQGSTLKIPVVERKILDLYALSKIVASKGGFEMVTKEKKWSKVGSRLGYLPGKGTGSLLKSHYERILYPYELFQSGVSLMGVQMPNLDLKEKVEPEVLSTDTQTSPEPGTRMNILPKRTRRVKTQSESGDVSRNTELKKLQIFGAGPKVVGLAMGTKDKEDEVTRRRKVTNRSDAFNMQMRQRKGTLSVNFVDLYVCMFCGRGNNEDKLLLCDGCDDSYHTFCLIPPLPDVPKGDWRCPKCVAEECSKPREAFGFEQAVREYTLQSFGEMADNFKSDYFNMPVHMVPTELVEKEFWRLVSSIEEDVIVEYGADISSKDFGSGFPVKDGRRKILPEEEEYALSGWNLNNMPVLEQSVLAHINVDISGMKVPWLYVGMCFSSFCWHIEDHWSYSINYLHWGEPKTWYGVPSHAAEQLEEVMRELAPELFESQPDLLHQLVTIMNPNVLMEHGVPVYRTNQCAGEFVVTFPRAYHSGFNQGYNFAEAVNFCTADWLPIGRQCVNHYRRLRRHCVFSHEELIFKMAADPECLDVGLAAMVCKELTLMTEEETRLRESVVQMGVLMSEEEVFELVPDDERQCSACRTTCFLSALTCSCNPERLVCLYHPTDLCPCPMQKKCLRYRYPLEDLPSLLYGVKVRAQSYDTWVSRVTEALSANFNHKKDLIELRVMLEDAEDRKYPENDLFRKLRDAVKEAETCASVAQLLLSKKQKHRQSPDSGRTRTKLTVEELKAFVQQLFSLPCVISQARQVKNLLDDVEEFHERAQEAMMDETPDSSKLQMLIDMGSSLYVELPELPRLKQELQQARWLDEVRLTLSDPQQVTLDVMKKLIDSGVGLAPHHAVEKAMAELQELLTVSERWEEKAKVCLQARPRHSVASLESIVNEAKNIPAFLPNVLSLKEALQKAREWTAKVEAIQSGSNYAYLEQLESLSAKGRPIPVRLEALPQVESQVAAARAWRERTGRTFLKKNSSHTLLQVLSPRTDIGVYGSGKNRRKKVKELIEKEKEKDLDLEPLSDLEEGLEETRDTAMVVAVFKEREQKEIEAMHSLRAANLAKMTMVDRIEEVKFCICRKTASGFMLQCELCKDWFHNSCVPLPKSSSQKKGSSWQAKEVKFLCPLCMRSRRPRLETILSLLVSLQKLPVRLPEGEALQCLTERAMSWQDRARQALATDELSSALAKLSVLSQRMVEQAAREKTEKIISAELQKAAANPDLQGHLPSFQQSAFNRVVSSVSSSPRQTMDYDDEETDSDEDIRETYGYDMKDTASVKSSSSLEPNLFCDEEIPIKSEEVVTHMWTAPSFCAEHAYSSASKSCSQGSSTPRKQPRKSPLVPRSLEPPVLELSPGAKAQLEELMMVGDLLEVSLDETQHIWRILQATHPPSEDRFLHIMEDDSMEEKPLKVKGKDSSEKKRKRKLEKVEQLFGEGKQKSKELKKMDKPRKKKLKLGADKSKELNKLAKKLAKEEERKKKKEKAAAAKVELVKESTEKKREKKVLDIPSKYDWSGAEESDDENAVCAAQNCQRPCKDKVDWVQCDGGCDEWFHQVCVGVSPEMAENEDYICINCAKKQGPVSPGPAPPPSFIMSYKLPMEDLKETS
Description: as §1

JMJD2C (KDM4C) = molecular target: T2, JMJD2C (KDM4C) (Homo sapiens, UniProt Q9H3R0); conditions: read-out: KDM4C % Inhib. (10 uM)
T2 sequence (Q9H3R0 1-1056): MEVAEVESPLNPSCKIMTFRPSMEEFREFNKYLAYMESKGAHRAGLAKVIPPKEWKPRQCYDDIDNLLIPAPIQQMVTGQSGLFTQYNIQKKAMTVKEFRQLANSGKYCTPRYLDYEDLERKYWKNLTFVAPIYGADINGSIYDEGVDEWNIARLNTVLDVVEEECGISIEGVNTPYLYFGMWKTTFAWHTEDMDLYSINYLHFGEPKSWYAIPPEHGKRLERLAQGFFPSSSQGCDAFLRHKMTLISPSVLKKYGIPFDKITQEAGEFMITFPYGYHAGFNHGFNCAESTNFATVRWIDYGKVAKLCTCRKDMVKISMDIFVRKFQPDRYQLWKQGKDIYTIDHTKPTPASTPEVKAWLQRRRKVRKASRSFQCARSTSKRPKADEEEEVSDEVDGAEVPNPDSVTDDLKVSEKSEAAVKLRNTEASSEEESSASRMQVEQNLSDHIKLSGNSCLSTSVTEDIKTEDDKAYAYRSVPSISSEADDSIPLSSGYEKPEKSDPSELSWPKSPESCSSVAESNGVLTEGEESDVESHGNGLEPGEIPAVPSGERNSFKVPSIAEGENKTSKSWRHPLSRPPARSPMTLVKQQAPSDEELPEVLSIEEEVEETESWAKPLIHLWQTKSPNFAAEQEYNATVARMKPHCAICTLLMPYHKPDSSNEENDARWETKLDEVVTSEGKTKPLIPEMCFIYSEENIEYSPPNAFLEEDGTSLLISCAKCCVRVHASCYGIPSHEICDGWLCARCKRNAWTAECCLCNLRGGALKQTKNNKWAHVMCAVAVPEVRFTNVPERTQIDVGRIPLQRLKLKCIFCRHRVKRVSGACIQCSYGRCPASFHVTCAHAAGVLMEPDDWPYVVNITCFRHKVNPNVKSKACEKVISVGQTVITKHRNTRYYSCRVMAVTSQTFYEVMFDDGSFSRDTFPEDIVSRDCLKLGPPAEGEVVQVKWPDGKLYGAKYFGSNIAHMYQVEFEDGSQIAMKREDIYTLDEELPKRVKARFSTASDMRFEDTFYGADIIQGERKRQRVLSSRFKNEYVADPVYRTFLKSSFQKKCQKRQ
Description: as §1

JMJD2D (KDM4D) = molecular target: T3, JMJD2D (KDM4D) (Homo sapiens, UniProt Q6B0I6)
T3 sequence (Q6B0I6 1-523): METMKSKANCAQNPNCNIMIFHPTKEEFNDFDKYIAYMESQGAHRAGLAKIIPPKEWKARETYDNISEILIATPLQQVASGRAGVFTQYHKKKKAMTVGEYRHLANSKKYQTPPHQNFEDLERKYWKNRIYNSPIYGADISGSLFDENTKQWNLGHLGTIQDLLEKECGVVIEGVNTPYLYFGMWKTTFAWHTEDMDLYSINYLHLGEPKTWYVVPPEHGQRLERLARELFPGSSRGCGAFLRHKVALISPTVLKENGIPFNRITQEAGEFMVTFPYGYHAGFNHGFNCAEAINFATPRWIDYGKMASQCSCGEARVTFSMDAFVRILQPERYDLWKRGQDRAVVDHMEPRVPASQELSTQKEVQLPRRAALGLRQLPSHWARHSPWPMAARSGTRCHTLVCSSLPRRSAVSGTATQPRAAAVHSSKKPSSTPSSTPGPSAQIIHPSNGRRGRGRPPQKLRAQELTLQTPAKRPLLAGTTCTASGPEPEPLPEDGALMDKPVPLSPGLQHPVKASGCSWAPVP
Description: as §1

JMJD2A (KDM4A) = molecular target: T4, JMJD2A (KDM4A) (Homo sapiens, UniProt O75164); conditions: read-out: KDM4A % Inhib. (10 uM)
T4 sequence (O75164 1-1064): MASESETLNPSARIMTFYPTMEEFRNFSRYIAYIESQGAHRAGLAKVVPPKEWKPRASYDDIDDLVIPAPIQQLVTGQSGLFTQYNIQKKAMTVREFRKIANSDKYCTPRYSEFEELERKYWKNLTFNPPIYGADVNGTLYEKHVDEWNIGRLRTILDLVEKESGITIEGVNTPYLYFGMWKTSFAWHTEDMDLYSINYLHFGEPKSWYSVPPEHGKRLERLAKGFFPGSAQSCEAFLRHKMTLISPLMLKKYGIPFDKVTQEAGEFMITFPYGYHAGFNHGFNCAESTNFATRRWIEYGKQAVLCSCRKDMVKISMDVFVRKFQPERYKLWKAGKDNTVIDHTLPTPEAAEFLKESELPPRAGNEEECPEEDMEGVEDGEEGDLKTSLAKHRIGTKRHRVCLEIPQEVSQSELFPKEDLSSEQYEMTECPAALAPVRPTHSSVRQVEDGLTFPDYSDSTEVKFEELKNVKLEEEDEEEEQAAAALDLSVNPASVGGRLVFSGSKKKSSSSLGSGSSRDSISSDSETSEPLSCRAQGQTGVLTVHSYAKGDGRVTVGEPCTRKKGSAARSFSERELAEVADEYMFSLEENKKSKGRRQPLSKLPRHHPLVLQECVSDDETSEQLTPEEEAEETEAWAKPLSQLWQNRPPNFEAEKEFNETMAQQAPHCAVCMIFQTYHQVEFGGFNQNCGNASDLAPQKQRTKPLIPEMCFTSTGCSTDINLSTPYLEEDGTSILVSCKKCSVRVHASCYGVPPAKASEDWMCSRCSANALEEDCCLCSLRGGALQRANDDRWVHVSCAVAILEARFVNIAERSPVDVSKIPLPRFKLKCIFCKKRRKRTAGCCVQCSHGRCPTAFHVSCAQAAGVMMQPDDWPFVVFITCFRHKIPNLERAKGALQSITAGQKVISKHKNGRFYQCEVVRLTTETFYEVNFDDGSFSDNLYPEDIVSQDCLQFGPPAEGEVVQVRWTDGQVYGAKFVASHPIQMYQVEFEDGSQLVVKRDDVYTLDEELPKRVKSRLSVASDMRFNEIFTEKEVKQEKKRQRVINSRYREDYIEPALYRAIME

Chain of JARID1C (KDM5C) (P41229 whole entry): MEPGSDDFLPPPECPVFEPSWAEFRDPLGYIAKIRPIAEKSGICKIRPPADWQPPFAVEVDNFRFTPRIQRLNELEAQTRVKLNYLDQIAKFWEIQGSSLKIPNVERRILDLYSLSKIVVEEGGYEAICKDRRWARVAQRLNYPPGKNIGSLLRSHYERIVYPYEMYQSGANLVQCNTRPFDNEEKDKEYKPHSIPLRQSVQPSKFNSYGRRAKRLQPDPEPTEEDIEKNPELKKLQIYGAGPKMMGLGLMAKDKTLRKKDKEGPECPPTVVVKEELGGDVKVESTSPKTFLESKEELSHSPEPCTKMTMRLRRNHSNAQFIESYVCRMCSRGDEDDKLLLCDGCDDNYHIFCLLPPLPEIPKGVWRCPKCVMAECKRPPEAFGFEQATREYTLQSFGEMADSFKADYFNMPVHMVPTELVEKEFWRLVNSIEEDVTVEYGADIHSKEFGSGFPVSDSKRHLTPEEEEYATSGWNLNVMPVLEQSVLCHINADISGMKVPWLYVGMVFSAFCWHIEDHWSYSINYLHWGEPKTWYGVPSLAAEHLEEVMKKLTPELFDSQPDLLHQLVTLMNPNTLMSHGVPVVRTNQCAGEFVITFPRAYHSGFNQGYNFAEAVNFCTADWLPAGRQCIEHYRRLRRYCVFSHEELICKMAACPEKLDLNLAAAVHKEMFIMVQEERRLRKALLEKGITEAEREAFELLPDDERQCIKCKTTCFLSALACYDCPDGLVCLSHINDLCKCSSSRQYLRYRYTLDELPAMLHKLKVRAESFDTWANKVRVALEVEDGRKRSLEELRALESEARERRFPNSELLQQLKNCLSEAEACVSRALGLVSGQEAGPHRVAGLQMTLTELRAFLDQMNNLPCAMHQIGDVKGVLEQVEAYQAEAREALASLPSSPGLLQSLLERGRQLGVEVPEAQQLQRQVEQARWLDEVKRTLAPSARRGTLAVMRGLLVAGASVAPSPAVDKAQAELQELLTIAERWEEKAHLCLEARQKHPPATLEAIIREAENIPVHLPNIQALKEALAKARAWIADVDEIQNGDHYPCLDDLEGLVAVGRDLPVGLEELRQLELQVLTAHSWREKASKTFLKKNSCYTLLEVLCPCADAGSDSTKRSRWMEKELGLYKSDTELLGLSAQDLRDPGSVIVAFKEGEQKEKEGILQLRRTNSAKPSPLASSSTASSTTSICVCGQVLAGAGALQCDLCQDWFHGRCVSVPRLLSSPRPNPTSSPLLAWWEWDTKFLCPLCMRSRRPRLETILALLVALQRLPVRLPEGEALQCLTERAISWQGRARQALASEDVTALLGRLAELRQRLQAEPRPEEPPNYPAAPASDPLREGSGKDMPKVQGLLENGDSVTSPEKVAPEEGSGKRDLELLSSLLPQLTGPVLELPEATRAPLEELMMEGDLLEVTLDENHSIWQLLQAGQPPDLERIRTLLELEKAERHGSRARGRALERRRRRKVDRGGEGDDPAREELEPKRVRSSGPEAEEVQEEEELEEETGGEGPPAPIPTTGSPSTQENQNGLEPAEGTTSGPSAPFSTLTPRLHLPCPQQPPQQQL

SMILES	inhibition at 100 µM (JARID1C (KDM5C)) [%]	inhibition at 100 µM (JMJD1A (KDM3A)) [%]	inhibition at 50 µM (JARID1A (KDM5A)) [%]	inhibition at 10 µM (JMJD2C (KDM4C)) [%]	inhibition at 10 µM (JMJD2D (KDM4D)) [%]	inhibition at 10 µM (JMJD2A (KDM4A)) [%]
CC(=O)N1c2ccccc2C(C#N)(c2ccccc2)C1c1cncc(-c2cn(CCCCCN3CCCC3)nn2)c1 (stereo not shown) [compound 119, 119]	46.7	21.1	39.5	–	–	–
CC(=O)N1c2ccccc2C(C#N)(c2ccccc2)C1c1ccc(CCCCCCCN2CCCC2)o1 (stereo not shown) [compound 138, 138]	–	–	46.6	32.3	14.4	24.4
CC(=O)N1c2ccccc2[C@](C#N)(c2ccccc2)[C@H]1c1cncc(/C=C/CCCCCN2CCCC2)c1 (racemic) [compound 5, 5]	32.3	15.1 ± 9.5	39.1	–	–	–
